Experimental data taken from patent publication US20230329236A1, “HERBICIDAL PYRIMIDINE DERIVATIVES” (MoA Technology Limited, priority 2020, published 2023).

Assays:
Conditions in all cases: 336 h, Table 3, post-emergence, 14±1 days post application
[1] = tested on: Amaranthus retroflexus (AMARE); assay: Post-emergence glasshouse test, visual injury, AMARE; format: in vivo
Method in brief: (§1)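 Post-emerg. spray, BBCH 12-14; acetone/water 50:50 + 0.5% Tween 20; rate as g a.i./ha. Glasshouse, sandy loam soil. Read: % visual injury vs untreated, 14±1 d after application.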

[2] = tested on: Lolium multiflorum (LOLMU); assay: Post-emergence glasshouse test, visual injury, LOLMU; format: in vivo
Method in brief: as §1

[3] = tested on: Veronica persica (VERPE); assay: Post-emergence glasshouse test, visual injury, VERPE; format: in vivo
Method in brief: as §1

[4] = tested on: Echinochloa crus-gaffi (ECHCG); assay: Post-emergence glasshouse test, visual injury, ECHCG; format: in vivo, Echinochloa crus-galli
Method in brief: as §1

Compound | pest or weed control at 500 g/ha [1] | pest or weed control at 500 g/ha [2] | pest or weed control at 500 g/ha [3] | pest or weed control at 500 g/ha [4] | pest or weed control at 125 g/ha [1] | pest or weed control at 125 g/ha [2] | pest or weed control at 125 g/ha [3] | pest or weed control at 125 g/ha [4] | further results
Cc1cc(-c2cnc(N3CCCC3)nc2-c2ccc(C)o2)on1 [Compound 58] | 0% | 20% | 0% | 10% |  |  |  |  | 
Cc1cc(-c2cnc(NC(C)C)nc2C(F)(F)F)on1 [Compound 115] |  |  |  |  | 20% | 0% | 60% | 0% | 
Cc1cc(-c2cnc(NCc3ccc(F)cc3)nc2C(F)(F)F)on1 [Compound 127] |  |  |  |  | 100% | 0% | 98% | 60% | 
Cc1cc(-c2cnc(N(C)C)nc2C(C)C)on1 [Compound 82] |  |  |  |  |  |  |  |  | pest or weed control at 250 g/ha ([1]; 250 g/ha): 0%; pest or weed control at 250 g/ha ([2]; 250 g/ha): 30%; pest or weed control at 250 g/ha ([3]; 250 g/ha): 20%; pest or weed control at 250 g/ha ([4]; 250 g/ha): 70%
Cc1cc(-c2cnc(NCc3ccc(C#N)cc3)nc2C(C)C)on1 [Compound 118] |  |  |  |  | 80% | 0% | 95% | 20% | 
Cc1cc(-c2cnc(N3CCC(C(N)=O)CC3)nc2C(C)C)on1 [Compound 69] | 50% | 0% | 60% | 0% |  |  |  |  | 
Cc1cc(-c2cnc(N3CCCC(O)C3)nc2C2CC2)on1 (centres unmarked) [Compound 57] | 70% | 0% | 0% | 50% |  |  |  |  | 
CCOCCCNc1ncc(-c2cc(C)no2)c(C(C)(C)C)n1 [Compound 40] | 70% | 0% | 0% | 30% |  |  |  |  | 
